{
  "source": "patent US8058258B2",
  "about": "“Methods for cancer therapy and stem cell modulation” (Agency for Science, Technology and Research, priority 2006, dated 2011)",
  "key": {"HCT116 cells": {"system": "HCT116 cells", "test": "Cell death by PI staining and flow cytometry", "format": "cell-based", "details": "colorectal cancer HCT116 cells, 5 μM", "experimental": "(§1) FIG. 3A depicts the detection of cell death of a variety of cancer cells upon exposure to 3-deazaneplanocin (DZNep) compared to untreated controls cells (DMSO=dimethyl sulfoxide). Breast cancer MCF-7 and MB-468 cells, colorectal HCT116, RKO and SW480 cells were treated with 5 μm 3-deazaneplanocin for 48 and 72 h, and cell death was detected by means of propodium iodide (PI) staining and flow cytometry analysis. Shown is the average of three independent experiments.\n(§2) Cell lines used in these examples were purchased from the American Type Culture Collection (Manassas, Va.). Cells were maintained in DMEM supplemented with 10% fetal bovine serum with glutamine, penicillin, and streptomycin. For drug treatment, cells were seeded the day before the drug treatment. Cells were treated with 5 μM 3-Deazaneplanocin A or 2 μM 5-aza-2′-deoxycytidine (5-AzaC; Sigma) for 72 hours and trichostatin A (TSA; Sigma) at 100 nM for 24 hours. For co-treatment of cells with 5-AzaC and TSA, 5-Aza was added for 48 hours and followed by TSA for 24 hours.\n(§3) Cells were trypsinised and washed with PBS and fixed in 70% ethanol and processed for propidium iodide staining and FACS analysis. For the caspase 3 activity assay and mitochondrial membrane potential detection, cells were stained with anti-active caspase 3 and JC-1, respectively, according to the manufacturer's instructions (BD Bioscience).\n(§4) It was observed that 3-deazaneplanocin at 5 μM could induce 25% cell death at 48 hours and 45% of cell death at 72 hours, as determined by propodium iodide (PI) staining and flow cytometry analysis (FIG. 3A)."}, "RKO cells": {"system": "RKO cells", "test": "Cell death by PI staining and flow cytometry", "format": "cell-based", "details": "colorectal cancer RKO cells, 5 μM", "experimental": "as §1, §2, §3, §4"}, "SW480 cells": {"system": "SW480 cells", "test": "Cell death by PI staining and flow cytometry", "format": "cell-based", "details": "colorectal cancer SW480 cells, 5 μM", "experimental": "as §1, §2, §3, §4"}, "CC33D cells": {"system": "CC33D cells", "test": "Microscopy examination of cell death in primary colon epithelial cells", "format": "cell-based", "details": "normal primary colon epithelial CC33D cells compared to HCT116", "excerpt": "To determine whether 3-deazaneplanocin preferentially induces apoptosis in cancer cells, the apoptosis induction between MCF-7 cells and the non-cancerous breast epithelial MCF10A cells was compared for various periods of time. […] In addition, normal primary colon epithelial CC33D cells, like MCF10A cells, were also resistant to 3-deazaneplanocin treatment compared to colorectal cancer HCT116 cell, as evaluated by microscopy examination (FIGS. 3G & 3H)."}, "[1]": {"system": "SUZ12 binding to PRC2 target gene promoters", "test": "ChIP of SUZ12 binding to PRC2 target gene promoters", "format": "cell-based, human", "details": "MCF-7 cells, 5 μM, 48 hours", "experimental": "ChIP assays were performed as described previously. […] MCF-7 cell were seeded into 6-well plates at 30% confluence and treated with or without 3-deazaneplanocin (5 μM) for 48 hours. Cells were washed once in 1× phosphate-buffered saline (PBS) and then treated with 1% formaldehyde in PBS at 37° C. for […] followed by the addition of glycine to a final concentration of 0.125 M for 5 mM. Cells were then scraped on ice and centrifuged at 1500 rpm for 5 mM at 4° C. After washing with PBS cell pellets were resuspended in 1 mL of cold lysis buffer (10 mM HEPES at pH 7.5, 1 mM EDTA at pH 8.0, 400 mM NaCl, 10% glycerol, 0.5% NP-40, 0.5 mM phenylmethylsulfonyl fluoride, and protease inhibitors [1 mM benzamidine, 3 mg/mL leupeptin, 0.1 mg/mL bacitracin, 1 mg/mL macroglobulin]) followed by centrifugation at 11,500 rpm in a microfuge for 5 min at 4° C. to remove protein not cross-linked to chromatin. The resulting pellets were then resuspended again in 1 mL of cold lysis buffer and sonicated with a Heat Systems-Ultrasonics, Inc. W-220 sonicator at 20% output for a total of 2 mM (pulsed: 30 sec on/30 sec off). The resulting solution was cleared by centrifugation at maximum speed in a microfuge for 10 mM at 4° C. At this point 5% of the solution was taken and stored at −20° C. for the input chromatin sample. […]"}},
  "data": [
    {"molecule": "Nc1nccc2c1ncn2C1C=C(CO)C(O)C1O", "note": "(centres unmarked) [3-deazaneplanocin, 5-(4-amino-1H-imidazo[4,5-c]pyridin-1-yl)-3-(hydroxymethyl)-3-cyclopentene-1,2-diol]", "values": [
      {"measurement": "cell death", "setting": "HCT116 cells", "result": "obvious cell death"},
      {"measurement": "cell death", "setting": "RKO cells", "result": "obvious cell death"},
      {"measurement": "cell death", "setting": "SW480 cells", "result": "obvious cell death"},
      {"measurement": "sensitivity to treatment, microscopy examination", "setting": "CC33D cells", "result": "resistant"},
      {"measurement": "SUZ12 binding to PRC2 target gene promoters (ChIP)", "setting": "[1]", "result": "markedly reduced"}
    ]}
  ]
}
